The source of these data is patent US7238716B2, “Alkanoic acid derivatives process for their production and use thereof” (Takeda Pharmaceuticals Company Limited, priority 2000, dated 2007).

One data set deals with T1, PPARγ-RXRα heterodimer (Homo sapiens, UniProt P37231).
T1 construct: expressed in transfected cells; host or cells: CHO-K1
T1 sequence (P37231 1-477 isoform P37231-2): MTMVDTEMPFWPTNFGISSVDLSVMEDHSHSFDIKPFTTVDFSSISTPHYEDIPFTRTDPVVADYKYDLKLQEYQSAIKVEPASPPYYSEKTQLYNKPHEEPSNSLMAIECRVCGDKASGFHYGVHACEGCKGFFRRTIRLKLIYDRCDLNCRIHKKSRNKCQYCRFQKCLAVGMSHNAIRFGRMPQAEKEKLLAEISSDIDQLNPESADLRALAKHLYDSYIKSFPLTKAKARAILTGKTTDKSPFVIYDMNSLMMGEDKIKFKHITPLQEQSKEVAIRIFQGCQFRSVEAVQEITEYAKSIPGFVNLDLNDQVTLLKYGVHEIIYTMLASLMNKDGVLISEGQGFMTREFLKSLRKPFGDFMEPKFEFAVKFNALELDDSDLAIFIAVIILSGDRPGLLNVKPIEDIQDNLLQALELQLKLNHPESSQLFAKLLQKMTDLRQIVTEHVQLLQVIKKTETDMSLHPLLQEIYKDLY
T1 sequence (P19793 1-462 partner): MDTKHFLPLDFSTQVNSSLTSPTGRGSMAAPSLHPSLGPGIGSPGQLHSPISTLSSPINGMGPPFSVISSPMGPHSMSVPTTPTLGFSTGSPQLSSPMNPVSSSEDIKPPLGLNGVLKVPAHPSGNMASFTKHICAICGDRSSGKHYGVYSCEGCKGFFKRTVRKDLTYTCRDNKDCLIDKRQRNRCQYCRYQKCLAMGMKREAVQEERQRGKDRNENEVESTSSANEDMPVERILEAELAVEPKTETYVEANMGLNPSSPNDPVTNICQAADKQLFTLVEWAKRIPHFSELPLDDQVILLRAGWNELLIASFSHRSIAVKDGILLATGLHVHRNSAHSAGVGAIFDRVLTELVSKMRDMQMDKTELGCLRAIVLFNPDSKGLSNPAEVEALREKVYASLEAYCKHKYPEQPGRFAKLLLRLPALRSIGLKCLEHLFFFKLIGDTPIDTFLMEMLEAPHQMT
The experiment in a line: PPARγ-RXRα heterodimer ligand activity, luciferase reporter in PPARγ:RXRα:4ERPP/CHO-K1 cells (Test Example 3). The data set is classed as cell-based. Particulars: concentration for 50% of the maximum fold induction of luciferase activity; 48 hours, CHO-K1 cells. The protocol: A PPARγ:RXRα:4ERPP/CHO-K1 cells obtained in Reference Example 5 described later were cultured in HAM F12 medium (produced by NISSUI SEIYAKU) containing 10% Fetal bovine serum (produced by Life Technologies, Inc., USA) and then inoculated to a 96-well white plate (produced by Corning Costar Corporation, USA) at the density of 2×10^4 cells/well, and cultured in a CO2 gas incubator at 37° C. overnight.
After washing the 96 well white plate with PBS (Phosphate-buffered saline), 90 μl of HAM F12 medium containing 0.1% fatty acid-free bovine serum albumin (BSA) and 10 μl of test compound were added, which was cultured in a CO2 gas incubator at 37° C. for 48 hours. After removing the medium, 40 μl of PIKKAGENE 7.5 (produced by Wako Pure Chemical Industries, Ltd.) was added. After stirring, the luciferase activity was determined using Lumistar (produced by BMG Labtechnologies GmbH, Germany).
A fold induction was calculated based on the luciferase activity of each test compound by taking the luciferase activity in the test compound non administration group as 1. The values of the test compound, concentration and the fold induction were analyzed using PRISM 2.01 (produced by GraphPad Software Inc. USA) to calculate the EC50 values, the effective concentration of a test compound for 50% of the maximum fold induction.
After a CHO-K1 cell cultured in a 750 ml tissue culture flask (produced by Corning-Costar Corporation, USA) containing HAM F12 medium (produced by NISSUI SEIYAKU) supplemented with 10% Fetal Bovine Serum (produced by Life Technologies, Inc., USA) was scraped by treating with 0.5 g/L trypsin-0.2 g/L EDTA (ethylenediaminetetraacetic acid) (produced by Life Technologies, Inc., USA), the cell was washed with PBS (phosphate buffered saline) (produced by Life Technologies, Inc., USA), centrifuged (1000 rpm, 5 minutes), and then suspended in PBS. Subsequently, a DNA was introduced into the cell under the condition shown below using GENE PULSER (produced by Bio-Rad Laboratories, USA).
Namely, to a cuvette having a 0.4 cm gap, added were 8×10^6 cells and 10 μg of plasmid pVgRXR2-hPPARγ obtained in Reference Example 3 and 10 μg of reporter plasmid pGL3-4ERPP-TK neo obtained in Reference Example 4, which was subjected to electroporation at the voltage of 0.25 kV under the capacitance of 960 μF. Subsequently, the cell was transferred into a HAM F12 medium containing 10% Fetal Bovine. Serum and cultured for 24 hours. Then the cell was scraped again and centrifuged, and then suspended in HAM F12 medium containing 10% Fetal Bovine Serum supplemented with 500 μg/ml of GENETICIN (produced by Life Technologies, Inc., USA) and 250 μg/ml of ZEOCIN (produced by Invitrogen, USA). The suspension was diluted to the density of 10^4 cells/ml, and inoculated to a 96-well plate (produced by Corning Costar Corporation, USA), which was cultured in a CO2 gas incubator at 37° C., whereby obtaining a GENETICIN- and ZEOCIN-resistant transformant.
Subsequently, after the transformant cell line thus obtained was cultured in a 24-well plate (produced by Corning Costar Corporation, USA), selected was a cell line, PPARγ:RXRα:4ERPP/CHO-K1 cell, in which the luciferase was expressed and induced by addition of 10 μM pioglitazone hydrochloride.

On to `Cc1oc(-c2ccccc2)nc1COc1ccc(COc2cccc(CC(=O)O)c2)cc1` [Example 1, 2-[3-[4-[(5-methyl-2-phenyl-4-oxazolyl)methoxy]benzyloxy]phenyl]acetic acid], for which the melting point is 159 to 160 °C. For the same compound, the response at PPARγ-RXRα heterodimer was half-maximal at 290 nM (EC50).

Regarding `CCOc1ccc(OCc2ccc(OCc3nc(-c4ccccc4)oc3C)cc2)cc1CCC(=O)O` [Example 7, 3-[2-ethoxy-5-[4-[(5-methyl-2-phenyl-4-oxazolyl)methoxy]benzyloxy]phenyl]propionic acid], the melting point was in the range of 129 to 130 °C. The compound also displayed an EC50 at PPARγ-RXRα heterodimer of 36 nM.

For the compound `Cc1oc(-c2ccccc2)nc1COc1ccc(COc2ccccc2CC(=O)O)cc1` [Example 11, 2-[2-[4-[(5-methyl-2-phenyl-4-oxazolyl)methoxy]benzyloxy]phenyl]acetic acid], the melting point was in the range of 153 to 154 °C. The compound further showed an EC50 at PPARγ-RXRα heterodimer of 62 nM.

Compound `Cc1ccc(OCc2ccc(OCc3nc(-c4ccccc4)oc3C)cc2)c(CC(=O)O)c1` [Example 15, 2-[5-methyl-2-[4-[(5-methyl-2-phenyl-4-oxazolyl)methoxy]benzyloxy]phenyl]acetic acid] displayed a melting point of 115 to 116 °C. Further, the EC50 on PPARγ-RXRα heterodimer came out at 200 nM.

In turn, `Cc1oc(-c2ccccc2)nc1COc1ccc(COc2ccc(Cl)cc2CC(=O)O)cc1` [Example 18, 2-[5-chloro-2-[4-[(5-methyl-2-phenyl-4-oxazolyl)methoxy]benzyloxy]phenyl]acetic acid] showed a melting point of 160 to 161 °C. Besides, the midpoint of the response on PPARγ-RXRα heterodimer, the EC50, lay at 2900 nM.

`COc1ccc(OCc2ccc(OCc3nc(-c4ccccc4)oc3C)cc2)c(CC(=O)O)c1` [Example 24, 2-[5-methoxy-2-[4-[(5-methyl-2-phenyl-4-oxazolyl)methoxy]benzyloxy]phenyl]acetic acid] registered a melting point of 134 to 136 °C. At PPARγ-RXRα heterodimer, this compound yielded an EC50 of 160 nM.

For the compound `CCOc1ccc(OCc2ccc(OCc3nc(-c4ccccc4)oc3C)cc2)c(CC(=O)O)c1` [Example 26, 2-[5-ethoxy-2-[4-[(5-methyl-2-phenyl-4-oxazolyl)methoxy]benzyloxy]phenyl]acetic acid], the melting point lay in the range of 122 to 123 °C. It took 35 nM to reach a half-maximal effect on PPARγ-RXRα heterodimer (EC50).

Compound `CCOc1ccc(OCc2ccc(OCc3nc(-c4ccccc4)oc3C)cc2)c(CCC(=O)O)c1` [Example 29, 3-[5-ethoxy-2-[4-[(5-methyl-2-phenyl-4-oxazolyl)methoxy]benzyloxy]phenyl]propionic acid] came in with a melting point of 115 to 116 °C. Moreover, the EC50 at PPARγ-RXRα heterodimer is 25 nM.

`Cc1oc(-c2ccccc2)nc1COc1cccc(COc2cccc(CC(=O)O)c2)c1` [Example 32, 2-[[3-[3-(5-methyl-2-phenyl-4-oxazolyl)methoxy]benzyloxy]phenyl]acetic acid]: the melting point fell in the range of 101 to 102 °C. For the same compound, on PPARγ-RXRα heterodimer, the EC50 turned out to be 77 nM.

Compound `Cc1oc(-c2ccccc2)nc1COc1ccc(COc2ncccc2CC(=O)O)cc1` [Example 36, 2-[2-[4-[(5-methyl-2-phenyl-4-oxazolyl)methoxy]benzyloxy]-3-pyridyl]acetic acid] returned a melting point of 144 to 145 °C. The compound further came in with an EC50 at PPARγ-RXRα heterodimer of 33 nM.

On to `Cc1oc(-c2ccccc2)nc1COc1ccc(COc2cccnc2CC(=O)O)cc1` [Example 37, 2-[3-[4-[(5-methyl-2-phenyl-4-oxazolyl)methoxy]benzyloxy]-2-pyridyl]acetic acid], for which the melting point is 115 to 116 °C (dec.). This compound also returned an EC50 on PPARγ-RXRα heterodimer of 610 nM.

On to `Cc1oc(-c2ccccc2)nc1COc1ccc(COc2ccccc2CC(=O)O)cn1` [Example 41, 2-[2-[[6-[(5-methyl-2-phenyl-4-oxazolyl)methoxy]-3-pyridyl]methoxy]phenyl]acetic acid], for which the melting point is 123 to 125 °C. Besides, on PPARγ-RXRα heterodimer, the EC50 amounted to 15 nM.

`COc1cc(COc2ccccc2CC(=O)O)ccc1OCc1nc(-c2ccccc2)oc1C` [Example 48, 2-[2-[3-methoxy-4-[(2-phenyl-5-methyl-4-oxazolyl)methoxy]benzyloxy]phenyl]acetic acid] gave a melting point of 165 to 166 °C. Further, on PPARγ-RXRα heterodimer, the EC50 was determined as 18 nM.

Regarding `Cc1oc(-c2ccco2)nc1COc1ccc(COc2ccccc2CC(=O)O)cc1` [Example 50, 2-[2-[4-[[2-(2-furyl)-5-methyl-4-oxazolyl]methoxy]benzyloxy]phenyl]acetic acid], the melting point was in the range of 167 to 168 °C. At PPARγ-RXRα heterodimer, this compound showed an EC50 of 180 nM.

The compound `O=C(O)Cc1ccccc1OCc1ccc(OCc2csc(-c3ccccc3)n2)cc1` [Example 51, 2-[2-[4-[(2-phenyl-4-thiazolyl)methoxy]benzyloxy]phenyl]acetic acid] had a melting point of 115 to 116 °C. The compound also returned an EC50 on PPARγ-RXRα heterodimer of 1200 nM.

Compound `Cc1sc(-c2ccccc2)nc1COc1ccc(COc2ccccc2CC(=O)O)cc1` [Example 52, 2-[2-[4-[(5-methyl-2-phenyl-4-thiazolyl)methoxy]benzyloxy]phenyl]acetic acid] displayed a melting point of 122 to 123 °C. A half-maximal response on PPARγ-RXRα heterodimer (EC50) required 230 nM.

In turn, `Cc1oc(-c2ccccc2)nc1CCOc1ccc(COc2ccccc2CC(=O)O)cc1` [Example 58, 2-[2-[4-[2-(5-methyl-2-phenyl-4-oxazolyl)ethoxy]benzyloxy]phenyl]acetic acid] gave a melting point of 141 to 142 °C. Also, a half-maximal response at PPARγ-RXRα heterodimer (EC50) required 120 nM.

For `Cc1oc(-c2ccccc2)nc1COc1cc(COc2cccc(CC(=O)O)c2)ccn1` [Example 62, 2-[3-[2-[(5-methyl-2-phenyl-4-oxazolyl)methoxy]-4-pyridylmethoxy]phenyl]acetic acid], the melting point was in the range of 148 to 149 °C. Moreover, the midpoint of the response at PPARγ-RXRα heterodimer, the EC50, lay at 20 nM.

In the case of `Cc1oc(-c2ccccc2)nc1COc1cc(COc2ccccc2CC(=O)O)on1` [Example 79, 2-[2-[3-(5-methyl-2-phenyl-4-oxazolylmethoxy)-5-isoxazoly]methoxylphenyl]acetic acid], the melting point lay in the range of 152 to 153 °C. The compound further showed an EC50 at PPARγ-RXRα heterodimer of 9.2 nM.

In the case of `Cc1oc(-c2ccccc2)nc1COc1ccc(COc2ncccc2CC(=O)O)cn1` [Example 88, 2-[2-[[6-[(5-methyl-2-phenyl-4-oxazolyl)methoxy]-3-pyridyl]methoxy]-3-pyridyl]acetic acid], the melting point was in the range of 147 to 148 °C. Also, on PPARγ-RXRα heterodimer, the EC50 is 7.1 nM.
